Assay results taken from ChEMBL document CHEMBL4507294, “Data for DCP probe MSD-CYP11B2” (2021).

Key:
[1] = target: AP2-associated protein kinase 1 (Homo sapiens) (UniProt Q2M2I8); details: Compound concentration 1000.0 nM
[2] = test system: Tyrosine-protein kinase ABL1 (Homo sapiens), P00519 [M351T]; details: Compound concentration 1000.0 nM
[3] = target: Calcium/calmodulin-dependent protein kinase type II subunit beta (Homo sapiens) (UniProt Q13554); details: Compound concentration 1000.0 nM
[4] = target: Calcium/calmodulin-dependent protein kinase kinase 2 (Homo sapiens) (UniProt Q96RR4); details: Compound concentration 1000.0 nM
Sequence of Calcium/calmodulin-dependent protein kinase kinase 2 (Homo sapiens) (Q96RR4 2-588 limits assumed): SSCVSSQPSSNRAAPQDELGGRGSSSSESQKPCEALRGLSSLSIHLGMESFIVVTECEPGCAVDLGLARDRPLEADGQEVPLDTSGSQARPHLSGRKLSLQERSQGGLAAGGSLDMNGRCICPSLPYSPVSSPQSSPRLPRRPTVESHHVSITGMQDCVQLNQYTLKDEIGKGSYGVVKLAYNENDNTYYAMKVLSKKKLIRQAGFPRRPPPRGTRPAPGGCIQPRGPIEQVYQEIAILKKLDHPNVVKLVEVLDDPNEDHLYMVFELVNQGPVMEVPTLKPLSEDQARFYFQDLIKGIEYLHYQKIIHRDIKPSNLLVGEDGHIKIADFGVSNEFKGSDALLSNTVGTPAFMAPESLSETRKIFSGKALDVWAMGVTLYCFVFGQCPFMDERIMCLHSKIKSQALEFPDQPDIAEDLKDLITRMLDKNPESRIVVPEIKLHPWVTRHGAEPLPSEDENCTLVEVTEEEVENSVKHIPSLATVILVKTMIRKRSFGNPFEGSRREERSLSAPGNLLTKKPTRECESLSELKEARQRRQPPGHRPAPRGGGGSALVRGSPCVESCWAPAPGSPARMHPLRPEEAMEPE

[5] = target: Peripheral plasma membrane protein CASK (Homo sapiens) (UniProt O14936); details: Compound concentration 1000.0 nM
[6] = target: Cyclin-dependent kinase 5 (Homo sapiens) (UniProt Q00535); details: Compound concentration 1000.0 nM
Sequence of Cyclin-dependent kinase 5 (Homo sapiens) (Q00535 whole entry, looked up): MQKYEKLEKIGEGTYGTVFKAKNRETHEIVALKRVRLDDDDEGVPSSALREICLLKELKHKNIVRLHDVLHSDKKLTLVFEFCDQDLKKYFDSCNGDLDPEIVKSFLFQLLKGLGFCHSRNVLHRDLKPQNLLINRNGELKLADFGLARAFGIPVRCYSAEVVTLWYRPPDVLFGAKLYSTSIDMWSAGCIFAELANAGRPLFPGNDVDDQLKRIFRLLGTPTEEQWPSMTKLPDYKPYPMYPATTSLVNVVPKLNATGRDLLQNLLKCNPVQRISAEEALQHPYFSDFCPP

[7] = target: Cyclin-dependent kinase-like 2 (Homo sapiens) (UniProt Q92772); details: Compound concentration 1000.0 nM
[8] = target: Dual specificity protein kinase CLK4 (Homo sapiens) (UniProt Q9HAZ1); details: Compound concentration 1000.0 nM
[9] = target: Macrophage colony-stimulating factor 1 receptor (Homo sapiens) (UniProt P07333); details: Compound concentration 1000.0 nM
[10] = target: Serine/threonine-protein kinase DCLK2 (Homo sapiens) (UniProt Q8N568); details: Compound concentration 1000.0 nM
[11] = target: Myotonin-protein kinase (Homo sapiens) (UniProt Q09013); details: Compound concentration 1000.0 nM
Sequence of Myotonin-protein kinase (Homo sapiens) (Q09013 whole entry): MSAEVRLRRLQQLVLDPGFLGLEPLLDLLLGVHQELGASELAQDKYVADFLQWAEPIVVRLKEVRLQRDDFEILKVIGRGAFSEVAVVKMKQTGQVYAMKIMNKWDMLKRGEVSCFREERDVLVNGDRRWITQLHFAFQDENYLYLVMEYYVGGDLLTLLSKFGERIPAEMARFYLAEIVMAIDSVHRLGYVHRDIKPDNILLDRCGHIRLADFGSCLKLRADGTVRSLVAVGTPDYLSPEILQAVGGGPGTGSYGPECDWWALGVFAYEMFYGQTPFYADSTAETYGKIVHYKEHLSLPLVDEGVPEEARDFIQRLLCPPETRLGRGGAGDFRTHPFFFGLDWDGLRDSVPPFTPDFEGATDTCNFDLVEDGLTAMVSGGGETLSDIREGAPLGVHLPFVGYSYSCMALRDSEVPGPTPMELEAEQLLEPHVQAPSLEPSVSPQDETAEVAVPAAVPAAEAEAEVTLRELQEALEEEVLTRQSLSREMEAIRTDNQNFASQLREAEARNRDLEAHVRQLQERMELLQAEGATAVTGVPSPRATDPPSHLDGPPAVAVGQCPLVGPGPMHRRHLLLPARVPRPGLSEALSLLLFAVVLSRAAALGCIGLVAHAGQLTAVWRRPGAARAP

[12] = test system: Epidermal growth factor receptor (Homo sapiens), P00533 [UNDEFINED MUTATION]; details: Compound concentration 1000.0 nM
[13] = test system: Epidermal growth factor receptor (Homo sapiens), P00533 [G719C]; details: Compound concentration 1000.0 nM
[14] = target: Mitogen-activated protein kinase 3 (Homo sapiens) (UniProt P27361); details: Compound concentration 1000.0 nM
[15] = target: Serine/threonine-protein kinase ICK (Homo sapiens) (UniProt Q9UPZ9); details: Compound concentration 1000.0 nM
Sequence of Serine/threonine-protein kinase ICK (Homo sapiens) (Q9UPZ9 whole entry): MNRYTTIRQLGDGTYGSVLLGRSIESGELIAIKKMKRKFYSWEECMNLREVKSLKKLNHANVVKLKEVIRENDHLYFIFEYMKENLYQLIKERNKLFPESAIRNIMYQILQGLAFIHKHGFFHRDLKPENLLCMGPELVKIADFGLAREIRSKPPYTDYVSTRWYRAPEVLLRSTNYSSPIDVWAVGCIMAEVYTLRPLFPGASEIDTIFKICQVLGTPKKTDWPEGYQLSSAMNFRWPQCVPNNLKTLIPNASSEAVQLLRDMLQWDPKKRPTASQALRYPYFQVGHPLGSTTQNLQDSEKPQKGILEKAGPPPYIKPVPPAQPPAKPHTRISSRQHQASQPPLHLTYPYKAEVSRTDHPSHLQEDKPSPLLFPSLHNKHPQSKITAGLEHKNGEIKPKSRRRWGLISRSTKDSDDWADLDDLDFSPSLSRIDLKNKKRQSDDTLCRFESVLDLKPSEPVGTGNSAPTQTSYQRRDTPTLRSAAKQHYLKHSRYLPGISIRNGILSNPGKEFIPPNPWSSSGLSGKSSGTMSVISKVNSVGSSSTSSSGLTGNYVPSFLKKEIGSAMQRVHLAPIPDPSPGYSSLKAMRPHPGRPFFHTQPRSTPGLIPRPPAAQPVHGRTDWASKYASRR

[16] = target: Inhibitor of nuclear factor kappa-B kinase subunit alpha (Homo sapiens) (UniProt O15111); details: Compound concentration 1000.0 nM
[17] = target: Mast/stem cell growth factor receptor Kit (Homo sapiens) (UniProt P10721); details: Compound concentration 1000.0 nM
[18] = target: Serine/threonine-protein kinase LATS1 (Homo sapiens) (UniProt O95835); details: Compound concentration 1000.0 nM
Sequence of Serine/threonine-protein kinase LATS1 (Homo sapiens) (O95835 whole entry): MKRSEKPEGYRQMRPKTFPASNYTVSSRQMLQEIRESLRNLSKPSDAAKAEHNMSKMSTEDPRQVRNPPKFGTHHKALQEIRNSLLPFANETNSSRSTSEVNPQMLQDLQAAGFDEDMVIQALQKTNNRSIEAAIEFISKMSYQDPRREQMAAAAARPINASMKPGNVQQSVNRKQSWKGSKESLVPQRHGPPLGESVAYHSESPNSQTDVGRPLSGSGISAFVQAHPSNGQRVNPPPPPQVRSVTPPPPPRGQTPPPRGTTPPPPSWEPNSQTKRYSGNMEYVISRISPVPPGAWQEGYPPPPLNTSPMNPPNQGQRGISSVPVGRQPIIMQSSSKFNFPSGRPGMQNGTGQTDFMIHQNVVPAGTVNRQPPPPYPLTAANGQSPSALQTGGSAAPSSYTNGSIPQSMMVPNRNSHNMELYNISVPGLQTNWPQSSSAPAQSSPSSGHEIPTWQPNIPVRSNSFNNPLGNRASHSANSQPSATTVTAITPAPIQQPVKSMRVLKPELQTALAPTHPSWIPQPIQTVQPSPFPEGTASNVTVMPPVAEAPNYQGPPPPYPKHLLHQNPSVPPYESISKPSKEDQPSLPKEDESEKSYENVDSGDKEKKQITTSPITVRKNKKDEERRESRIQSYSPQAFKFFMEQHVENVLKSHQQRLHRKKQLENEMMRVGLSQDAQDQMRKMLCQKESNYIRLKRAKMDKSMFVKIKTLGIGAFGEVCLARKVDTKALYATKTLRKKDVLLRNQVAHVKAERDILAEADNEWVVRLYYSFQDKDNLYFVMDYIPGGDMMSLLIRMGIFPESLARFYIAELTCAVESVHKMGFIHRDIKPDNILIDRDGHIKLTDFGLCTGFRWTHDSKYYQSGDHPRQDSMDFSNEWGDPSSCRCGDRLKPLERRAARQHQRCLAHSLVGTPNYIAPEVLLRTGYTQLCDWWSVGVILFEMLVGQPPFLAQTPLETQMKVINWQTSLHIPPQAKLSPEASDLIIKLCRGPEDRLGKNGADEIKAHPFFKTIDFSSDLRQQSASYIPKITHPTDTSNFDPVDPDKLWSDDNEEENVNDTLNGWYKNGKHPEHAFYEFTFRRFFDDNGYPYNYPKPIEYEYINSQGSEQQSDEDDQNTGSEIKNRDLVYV

[19] = target: Leucine-rich repeat serine/threonine-protein kinase 2 (Homo sapiens) (UniProt Q5S007); details: Compound concentration 1000.0 nM
[20] = target: Tyrosine-protein kinase Lyn (Homo sapiens) (UniProt P07948); details: Compound concentration 1000.0 nM
[21] = target: Serine/threonine-protein kinase MAK (Homo sapiens) (UniProt P20794); details: Compound concentration 1000.0 nM
[22] = target: Serine/threonine-protein kinase MARK2 (Homo sapiens) (UniProt Q7KZI7); details: Compound concentration 1000.0 nM
[23] = target: Tyrosine-protein kinase Mer (Homo sapiens) (UniProt Q12866); details: Compound concentration 1000.0 nM
Sequence of Tyrosine-protein kinase Mer (Homo sapiens) (Q12866 whole entry): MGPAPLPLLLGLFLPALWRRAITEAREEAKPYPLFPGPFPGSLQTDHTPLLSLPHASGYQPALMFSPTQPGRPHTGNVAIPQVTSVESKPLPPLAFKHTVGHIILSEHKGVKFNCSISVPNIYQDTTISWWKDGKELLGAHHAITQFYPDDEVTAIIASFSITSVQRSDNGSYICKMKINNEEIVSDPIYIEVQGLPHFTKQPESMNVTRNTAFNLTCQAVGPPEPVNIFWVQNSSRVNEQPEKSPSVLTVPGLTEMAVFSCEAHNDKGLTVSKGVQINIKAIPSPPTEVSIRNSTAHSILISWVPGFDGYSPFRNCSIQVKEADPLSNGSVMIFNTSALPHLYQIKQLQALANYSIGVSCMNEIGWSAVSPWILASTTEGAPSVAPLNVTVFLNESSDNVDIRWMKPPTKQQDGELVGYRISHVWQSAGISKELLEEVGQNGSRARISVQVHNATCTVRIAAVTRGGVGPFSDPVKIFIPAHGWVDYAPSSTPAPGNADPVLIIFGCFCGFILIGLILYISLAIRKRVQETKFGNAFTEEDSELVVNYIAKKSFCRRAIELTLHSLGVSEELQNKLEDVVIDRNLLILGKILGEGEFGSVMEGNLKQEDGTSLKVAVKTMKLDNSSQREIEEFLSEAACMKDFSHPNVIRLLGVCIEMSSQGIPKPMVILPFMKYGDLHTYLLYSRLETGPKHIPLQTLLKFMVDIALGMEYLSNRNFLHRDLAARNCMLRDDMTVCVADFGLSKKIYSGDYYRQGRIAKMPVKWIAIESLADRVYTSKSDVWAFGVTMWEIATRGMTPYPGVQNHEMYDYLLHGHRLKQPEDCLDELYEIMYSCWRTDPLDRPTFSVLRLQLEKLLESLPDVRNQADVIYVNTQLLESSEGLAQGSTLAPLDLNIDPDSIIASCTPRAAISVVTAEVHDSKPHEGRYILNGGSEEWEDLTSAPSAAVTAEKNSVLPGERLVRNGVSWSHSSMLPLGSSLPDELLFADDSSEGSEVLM

[24] = target: Misshapen-like kinase 1 (Homo sapiens) (UniProt Q8N4C8); details: Compound concentration 1000.0 nM
[25] = target: Myosin light chain kinase (Homo sapiens) (UniProt Q32MK0); details: Compound concentration 1000.0 nM
[26] = target: Serine/threonine-protein kinase mTOR (Homo sapiens) (UniProt P42345); details: Compound concentration 1000.0 nM
[27] = target: Myosin light chain kinase 2, skeletal/cardiac muscle (Homo sapiens) (UniProt Q9H1R3); details: Compound concentration 1000.0 nM
[28] = target: Phosphatidylinositol 4,5-bisphosphate 3-kinase catalytic subunit delta isoform (Homo sapiens) (UniProt O00329); details: Compound concentration 1000.0 nM
[29] = target: Ribosomal protein S6 kinase alpha-4 (Homo sapiens) (UniProt O75676); details: Compound concentration 1000.0 nM
[30] = target: Serine/threonine-protein kinase 35 (Homo sapiens) (UniProt Q8TDR2); details: Compound concentration 1000.0 nM
[31] = target: TGF-beta receptor type-1 (Homo sapiens) (UniProt P36897); details: Compound concentration 1000.0 nM
[32] = target: Serine/threonine-protein kinase tousled-like 2 (Homo sapiens) (UniProt Q86UE8); details: Compound concentration 1000.0 nM
Sequence of Serine/threonine-protein kinase tousled-like 2 (Homo sapiens) (Q86UE8 whole entry, looked up): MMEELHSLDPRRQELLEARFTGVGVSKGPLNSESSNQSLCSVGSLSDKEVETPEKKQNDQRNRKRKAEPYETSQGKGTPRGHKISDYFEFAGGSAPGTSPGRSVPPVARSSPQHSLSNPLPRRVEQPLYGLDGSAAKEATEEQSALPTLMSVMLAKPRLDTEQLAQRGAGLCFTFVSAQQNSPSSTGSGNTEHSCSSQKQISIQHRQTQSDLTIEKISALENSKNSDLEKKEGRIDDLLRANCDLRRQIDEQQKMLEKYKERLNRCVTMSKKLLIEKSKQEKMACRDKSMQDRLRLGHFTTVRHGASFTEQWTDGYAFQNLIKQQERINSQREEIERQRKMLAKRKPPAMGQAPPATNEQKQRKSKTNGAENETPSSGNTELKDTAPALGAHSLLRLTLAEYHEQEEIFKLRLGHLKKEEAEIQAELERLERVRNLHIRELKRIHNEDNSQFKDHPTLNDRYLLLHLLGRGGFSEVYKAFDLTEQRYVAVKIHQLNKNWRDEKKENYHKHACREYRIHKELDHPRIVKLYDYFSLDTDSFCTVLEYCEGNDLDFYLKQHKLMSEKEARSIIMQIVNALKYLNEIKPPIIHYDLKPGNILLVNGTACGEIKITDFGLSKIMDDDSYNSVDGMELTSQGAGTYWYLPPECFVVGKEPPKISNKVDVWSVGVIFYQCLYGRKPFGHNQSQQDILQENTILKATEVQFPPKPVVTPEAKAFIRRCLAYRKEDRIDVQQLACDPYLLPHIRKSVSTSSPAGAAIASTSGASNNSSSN

[33] = target: Transient receptor potential cation channel subfamily M member 6 (Homo sapiens) (UniProt Q9BX84); details: Compound concentration 1000.0 nM
[34] = target: Serine/threonine-protein kinase VRK2 (Homo sapiens) (UniProt Q86Y07); details: Compound concentration 1000.0 nM
[35] = target: Serine/threonine-protein kinase WNK2 (Homo sapiens) (UniProt Q9Y3S1); details: Compound concentration 1000.0 nM
[36] = target: Tyrosine-protein kinase ZAP-70 (Homo sapiens) (UniProt P43403); details: Compound concentration 1000.0 nM
[37] = target: 5-hydroxytryptamine receptor 1D (Homo sapiens) (UniProt P28221); details: Compound concentration 10.0 uM
[38] = target: Mu-type opioid receptor (Homo sapiens) (UniProt P35372); details: Compound concentration 10.0 uM
[39] = target: T1, Alpha-2B adrenergic receptor (Homo sapiens) (UniProt P18089); details: Compound concentration 10.0 uM
T1 sequence (whole entry): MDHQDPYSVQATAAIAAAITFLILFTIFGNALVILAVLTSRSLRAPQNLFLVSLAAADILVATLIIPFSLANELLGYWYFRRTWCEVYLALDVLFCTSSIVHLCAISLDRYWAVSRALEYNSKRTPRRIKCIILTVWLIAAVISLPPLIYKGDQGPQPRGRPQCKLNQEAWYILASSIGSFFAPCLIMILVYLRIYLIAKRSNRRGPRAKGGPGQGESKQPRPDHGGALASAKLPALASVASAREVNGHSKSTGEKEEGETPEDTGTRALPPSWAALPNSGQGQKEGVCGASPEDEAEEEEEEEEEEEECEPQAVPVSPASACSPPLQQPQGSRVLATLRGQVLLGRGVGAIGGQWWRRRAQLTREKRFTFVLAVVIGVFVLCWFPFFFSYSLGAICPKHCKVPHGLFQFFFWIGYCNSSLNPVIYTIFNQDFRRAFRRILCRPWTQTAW

| Structure (SMILES) | residual activity [1] | residual activity [2] | residual activity [3] | residual activity [4] | residual activity [5] | residual activity [6] | residual activity [7] | residual activity [8] | residual activity [9] | residual activity [10] | residual activity [11] | residual activity [12] | residual activity [13] | residual activity [14] | residual activity [15] | residual activity [16] | residual activity [17] | residual activity [18] | residual activity [19] | residual activity [20] | other results |
| --- | --- | --- | --- | --- | --- | --- | --- | --- | --- | --- | --- | --- | --- | --- | --- | --- | --- | --- | --- | --- | --- |
| FC(F)(F)c1ccc2c(c1)nc(-c1cccnc1)n2C1CC1 [MSD-CYP11B2-Negative-control] | 100% | 100% | 100% | 100% | 100% | 100% | 100% | 100% | 89% | 100% | 92% | 100% | 92% | 100% | 100% | 100% | 100% | 86% | 100% | 82% | residual activity [21]: 100%; residual activity [22]: 100%; residual activity [23]: 79%; residual activity [24]: 100%; residual activity [25]: 100%; residual activity [26]: 80%; residual activity [27]: 100%; residual activity [28]: 81%; residual activity [29]: 100%; residual activity [30]: 100%; residual activity [31]: 78%; residual activity [32]: 100%; residual activity [33]: 100%; residual activity [34]: 100%; residual activity [35]: 100%; residual activity [36]: 100%; inhibition [37]: 6.79%; inhibition [38]: -2.5%; inhibition [39]: 43.3% |
| CC(C)(O)c1cncc(-c2nc3ccc(F)cc3n2C2CC2)c1 [MSD-CYP11B2] | 100% | 100% | 100% | 100% | 89% | 100% | 97% | 54% | 100% | 100% | 71% | 100% | 100% | 100% | 100% | 100% | 100% | 82% | 100% | 100% | residual activity [21]: 100%; residual activity [22]: 100%; residual activity [23]: 96%; residual activity [24]: 100%; residual activity [25]: 87%; residual activity [26]: 96%; residual activity [27]: 97%; residual activity [28]: 100%; residual activity [29]: 100%; residual activity [30]: 100%; residual activity [31]: 90%; residual activity [32]: 100%; residual activity [33]: 100%; residual activity [34]: 100%; residual activity [35]: 100%; residual activity [36]: 100%; inhibition [37]: 0.75%; inhibition [38]: 0.18%; inhibition [39]: 76.4% |
